In patent US20210186905A1, “ENHANCING T-CELL FUNCTION AND TREATING A T-CELL DYSFUNCTIONAL DISORDER WITH A COMBINATION OF AN LSD INHIBITOR AND A PD-1 BINDING ANTAGONIST” (EpiAxis Therapeutic Pty Ltd, priority 2017, published 2021):
Counter-ions that a name gives are not always drawn.

How the values were obtained:
Type in all cases: in vivo, mouse
[1] = test system: LSD1p, CSV and ALDH1A; assay: Immunofluorescence of FFPE tissue, metastatic lesions in lung or liver of 4T1 mice
Method: FIG. 3 is a photographic and graphical representation showing that dual epigenetic-immunotherapy inhibits metastatic progression in 4T1 Mouse model. A. 4T1 Treatment FFPE from each treatment group (Group A=Control, Group C: PD1 (10 mg/kg), Group D: Phenelzine (40 mg/kg), Group F: PD1+Phenelzine) and for each target organ (Lung and Liver) was processed for 3D high resolution microscopy using the BondRX. FFPE tissues were fixed and Immunofluorescence microscopy was performed probing with rabbit LSD1(S111p); mouse anti CSV and goat anti […] and visualized with a donkey anti-rabbit AF 488, anti-mouse 568 and anti-goat 633. Cover slips were mounted on glass microscope slides with ProLong Diamond Antifade reagent (Life Technologies). Protein targets were localized by confocal laser scanning microscopy. Single 0.5 μm sections were obtained using a Leica DMI8 microscope using 100× oil immersion lens running LAX software. The final image was obtained by averaging four sequential images of the same section. Digital images were analyzed using ImageJ software (ImageJ, NIH, Bethesda, Md., USA) to determine the either the Total Nuclear Fluorescent Intensity (TNFI), the Total Cytoplasmic Fluorescent Intensity (TCFI) or total Fluorescent Intensity (TFI). N=40 cells were counted. B. Graphs for both organs are presented here. Graphs represent the TNFI values for LSD1, ALDH1A and TCFI for CSV measured using ImageJ to select the nucleus minus background. Representative images for the Lung dataset are shown.
The expression of a mesenchymal, stem-like biomarker panel was examined in metastatic sites in a 4T1 mouse model treated with vehicle control (Group A), anti-PD1 antibody (10 mg/kg) (Group C), phenelzine sulfate (40 mg/kg) (Group D) or a combination of both (Group F). The present inventors examined the presence of metastatic lesions in the lung or liver and measured the immunofluorescence (IF) of formalin-fixed paraffin-embedded (FFPE) tissue examining the IF intensity of LSD1p, CSV and ALDH1A.
4T1 Treatment FFPE from each treatment group primary tumor biopsies were processed in the BondRX for IFA staining using the instrument protocol: ER2 for 20 mins at 100° C. with Epitope Retrieval Solution 2 which is a pH-9 EDTA based retrieval solution followed by probing with rabbit anti LSD1 (S111p); mouse anti CSV and goat anti ALDH1A and visualized with a donkey anti-rabbit AF 488, anti-mouse 568 and anti-goat 633 or anti rat 633. Cover slips were mounted on glass microscope slides with ProLong Diamond Antifade reagent (Life Technologies). Protein targets were localized by confocal laser scanning microscopy. Single 0.5 μm sections were obtained using a Leica DMI8 microscope using 100× oil immersion lens running LAX software. The final image was obtained by averaging four sequential images of the same section. Digital images were analysed using ImageJ software (ImageJ, NIH, Bethesda, Md., USA) to determine the either the Total Nuclear Fluorescent Intensity (TNFI), the Total Cytoplasmic Fluorescent Intensity (TCFI) or total Fluorescent Intensity (TFI).

[2] = test system: CD4+/CD8+ T-cells; assay: Flow cytometry of T-cell populations (naive, effector and central memory) in 4T1 mice
Method: FIG. 5 is a graphical representation showing that dual epigenetic-immunotherapy re-educates and re-programs the T-cell repertoire. A. Cells stimulated with PMA/ionomycin for 4 hours in the presence of Brefeldin A. Cells were surfaced stained with CD45, CD3, CD4, CD8, CD44, CD62L (for naïve, effector and central memory), CD25 and FoxP3 (for Tregs) and analyzed via Flow cytometry. A Mann-Whitney non-parametric t-test was used to compare control vs other groups (*p<0.05, n=2-5). […] Representative images for each dataset are shown. TNFI values for EOMES, TBET and Ki67 measured using Image) to select the nucleus minus background. Graphs represent the % change of expression relative to control group for CD8^+ T-cells. (n>20 individual cells, Group A=Control, Group C: PD1 (10 mg/kg), Group D: Phenelzine (40 mg/kg), Group F: PD1+Phenelzine). C. Cells stimulated with PMA/ionomycin for 4 hours in the presence of Brefeldin A. Cell were surfaced stained with CD45, CD3, CD4, CD8 and intracellular staining of IFN-γ, IL-2 and TNF-α in the presence of Brefeldin A and analyzed via flow cytometry. A Mann-Whitney non-parametric t-test was used to compare control vs other groups (*p<0.05, **p<0.008; n=2-5). […] Representative images for each dataset are shown. TNFI values for TNFα and IFNγ measured using ImageJ to select the nucleus minus background. […]

[3] = test system: CD4+ and CD8+ T-cells; assay: Flow cytometry, intracellular staining of IFN-γ, IL-2 and TNF-α after PMA/ionomycin
Method: FIG. 5 is a graphical representation showing that dual epigenetic-immunotherapy re-educates and re-programs the T-cell repertoire. A. Cells stimulated with PMA/ionomycin for 4 hours in the presence of Brefeldin A. Cells were surfaced stained with CD45, CD3, CD4, CD8, CD44, CD62L (for naïve, effector and central memory), CD25 and FoxP3 (for Tregs) and analyzed via Flow cytometry. A Mann-Whitney non-parametric t-test was used to compare control vs other groups (*p<0.05, n=2-5). […] Representative images for each dataset are shown. TNFI values for EOMES, TBET and Ki67 measured using Image) to select the nucleus minus background. Graphs represent the % change of expression relative to control group for CD8^+ T-cells. (n>20 individual cells, Group A=Control, Group C: PD1 (10 mg/kg), Group D: Phenelzine (40 mg/kg), Group F: PD1+Phenelzine). C. Cells stimulated with PMA/ionomycin for 4 hours in the presence of Brefeldin A. Cell were surfaced stained with CD45, CD3, CD4, CD8 and intracellular staining of IFN-γ, IL-2 and TNF-α in the presence of Brefeldin A and analyzed via flow cytometry. A Mann-Whitney non-parametric t-test was used to compare control vs other groups (*p<0.05, **p<0.008; n=2-5). […] Representative images for each dataset are shown. TNFI values for TNFα and IFNγ measured using ImageJ to select the nucleus minus background. Graphs represent the % change of expression relative to control group for CD8^+ T-cells. […]
Cells were surfaced stained with CD49b, F4/80 and intracellular stained for IFN-γ, TNF-α and IL-10. To label NK cells and the macrophages (M1/M2) in the tumor microenvironment or a suite of antibodies to label CD8^+ T-Cells (Cells were surfaced stained with CD45, CD3, CD4, CD8, CD44, CD62L (for naïve, effector and central memory). Cells were finally resuspended in PBS 2% FBS and flow cytometry performed on FACS Fortessa (BD) or FACS LSRII (BD). Analysis of data was done using FlowJo® analysis software and % cell populations calculated from the raw data. A Mann-Whitney non-parametric t-test was used to compare control vs other groups.

NNCCc1ccccc1 (racemic) [phenelzine sulfate, (±)-2-phenylethylhydrazine]
ALDH1A expression ([1]; liver lesions): strongly inhibited
CSV expression ([1]; liver lesions): strongly inhibited
LSD1p IF intensity ([1]; liver lesions): strongly inhibited
ALDH1A expression ([1]; lung lesions): strongly inhibited
CSV expression ([1]; lung lesions): strongly inhibited
LSD1p IF intensity ([1]; lung lesions): strongly inhibited
CD8+ central memory and effector memory populations [2]: enhance
IL-2 production by CD4+ T-cells ([3]; CD4+ T-cells): much more efficient
pro-inflammatory/Th1 response (IFN-γ, IL-2 and TNF-α) ([3]; CD4+ and CD8+ T-cells, compared to the control): better pro-inflammatory/Th1 response
production of these cytokines (IFN-γ, IL-2, TNF-α) ([3]; as compared to the control): seems to increase
